This test has as its target T1, Full-length USP19 (Homo sapiens, UniProt O94966).
T1 construct: Full-length USP19 was purchased from Boston Biochem (E-576); purchased Boston Biochem E-576
T1 sequence (O94966 1-1318): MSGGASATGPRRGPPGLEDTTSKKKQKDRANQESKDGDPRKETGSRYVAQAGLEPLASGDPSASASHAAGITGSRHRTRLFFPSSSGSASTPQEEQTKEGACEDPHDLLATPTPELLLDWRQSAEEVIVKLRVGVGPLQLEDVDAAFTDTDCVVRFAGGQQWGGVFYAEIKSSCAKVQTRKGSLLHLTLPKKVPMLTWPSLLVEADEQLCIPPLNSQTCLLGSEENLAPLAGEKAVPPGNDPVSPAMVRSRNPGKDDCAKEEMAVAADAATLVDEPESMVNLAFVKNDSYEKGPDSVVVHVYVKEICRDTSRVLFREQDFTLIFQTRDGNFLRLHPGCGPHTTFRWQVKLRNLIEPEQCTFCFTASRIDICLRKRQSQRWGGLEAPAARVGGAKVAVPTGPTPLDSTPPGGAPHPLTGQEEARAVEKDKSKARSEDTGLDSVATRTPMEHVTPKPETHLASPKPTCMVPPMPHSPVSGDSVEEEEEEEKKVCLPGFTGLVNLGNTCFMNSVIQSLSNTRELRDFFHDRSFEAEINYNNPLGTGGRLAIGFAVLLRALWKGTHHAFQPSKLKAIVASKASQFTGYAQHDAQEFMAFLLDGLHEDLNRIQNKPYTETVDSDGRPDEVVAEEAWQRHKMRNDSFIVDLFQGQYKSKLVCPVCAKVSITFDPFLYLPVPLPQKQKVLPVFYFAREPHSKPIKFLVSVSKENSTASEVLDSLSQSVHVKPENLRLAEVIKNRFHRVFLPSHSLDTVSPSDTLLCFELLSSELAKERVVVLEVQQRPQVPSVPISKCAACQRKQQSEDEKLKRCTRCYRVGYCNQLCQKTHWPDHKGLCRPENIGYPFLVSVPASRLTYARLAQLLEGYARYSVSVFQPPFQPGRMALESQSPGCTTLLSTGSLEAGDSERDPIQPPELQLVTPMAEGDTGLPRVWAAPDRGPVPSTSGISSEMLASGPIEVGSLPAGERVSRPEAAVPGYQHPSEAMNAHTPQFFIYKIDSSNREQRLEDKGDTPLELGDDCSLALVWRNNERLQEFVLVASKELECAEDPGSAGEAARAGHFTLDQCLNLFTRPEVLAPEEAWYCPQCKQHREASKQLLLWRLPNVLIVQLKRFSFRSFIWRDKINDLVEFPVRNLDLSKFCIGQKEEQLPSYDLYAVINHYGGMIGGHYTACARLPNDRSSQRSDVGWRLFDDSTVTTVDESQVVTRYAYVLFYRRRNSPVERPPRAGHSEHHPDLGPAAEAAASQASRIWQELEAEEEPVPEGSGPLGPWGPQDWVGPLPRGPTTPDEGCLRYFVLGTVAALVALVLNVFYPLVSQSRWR
Put plainly: USP19 fluorescence polarisation (FP) homogeneous assay with Ubiquitin-Lys-TAMRA substrate. The note with it: 2.5 nM USP19, 30 min pre-incubation, average of at least two duplicate experiments. The test is classed as biochemical. In outline:
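Full-length USP19 preincubated 30 min at RT with inhibitor (200 μM to 2 μM series, 8–18 points) before adding 500 nM Ubiquitin-Lys-TAMRA substrate.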
For orientation: Polarisation of emitted light reports the rotation of a fluorescent probe.

Here are results for ten molecules from patent US20220033397A1, “PHARMACEUTICAL COMPOUNDS AND THEIR USE AS INHIBITORS OF UBIQUITIN SPECIFIC PROTEASE 19 (USP19)” (ALMAC DISCOVERY LIMITED, priority 2018, published 2022).

The IC50 is the point on the concentration scale where inhibition reaches its midpoint.

Structures are written as SMILES.

`O=C(N1CC[C@@](O)(Cn2cnc(C3CC3)cc2=O)C2(CCCC2)C1)N1CCNC[C@H]1c1cc(F)ccc1F` [Example 378, 6-Cyclopropyl-3-(((S)-7-((R)-2-(2,5-difluorophenyl)piper-azine-1-carbonyl)-10-hydroxy-7-aza-spiro[4.5]decan-10-yl)methyl)pyrimidin-4(3H)-one]: the IC50 was less than 500 nM.
The result for `O=C(N1CC[C@@](O)(Cn2cnc(-c3ccccc3)cc2=O)C2(CCCC2)C1)N1CCNCC1c1ccc(F)c(F)c1` (stereo partly drawn) [Example 379, 3-(((10S)-7-(2-(3,4-Difluorophenyl)piper-azine-1-carbonyl)-10-hydroxy-7-azaspiro[4.5]decan-10-yl)methyl)-6-phenylpyrimidin-4(3H)-one] reads less than 500 nM; that for `COc1cccc(F)c1-c1cc(=O)n(C[C@]2(O)CCN(C(=O)N3CCNC[C@H]3c3ccccc3)CC23CCCC3)cn1` [Example 381, 6-(2-Fluoro-6-meth-oxyphenyl)-3-(((S)-10-hydroxy-7-((R)-2-phenylpiperazine-1-carbonyl)-7-aza-spiro[4.5]decan-10-yl)methyl)pyrimidin-4(3H)-one], less than 500 nM; that for `Cc1cccc(F)c1-c1cc(=O)n(C[C@]2(O)CCN(C(=O)N3CCNC[C@H]3c3ccccc3)CC23CCCC3)cn1` [Example 382, 6-(2-Fluoro-6-meth-ylphenyl)-3-(((S)-10-hydroxy-7-((R)-2-phenylpiperazine-1-carbonyl)-7-aza-spiro[4.5]decan-10-yl)methyl)pyrimidin-4(3H)-one], less than 500 nM.
With `COc1c(F)cccc1-c1cc(=O)n(C[C@]2(O)CCN(C(=O)N3CCNC[C@H]3c3ccccc3)CC23CCCC3)cn1` [Example 383, 6-(3-Fluoro-2-methoxyphenyl)-3-(((S)-10-hydroxy-7-((R)-2-phenyl-piperazine-1-carbonyl)-7-aza-spiro[4.5]decan-10-yl)methyl)pyrimidin-4(3H)-one] the figure was less than 500 nM; with `COc1ccc(F)cc1-c1cc(=O)n(C[C@]2(O)CCN(C(=O)N3CCNC[C@H]3c3ccccc3)CC23CCCC3)cn1` [Example 384, 6-(5-Fluoro-2-methoxyphenyl)-3-(((S)-10-hydroxy-7-((R)-2-phenylpipera-zine-1-carbonyl)-7-azaspiro[4.5]decan-10-yl)methyl)pyrimi-din-4(3H)-one], less than 500 nM; with `O=C(N1CC[C@@](O)(Cn2cnc(-c3cccc(F)c3F)cc2=O)C2(CCCC2)C1)N1CCNC[C@H]1c1ccccc1` [Example 385, 6-(2,3-Difluoro-phenyl)-3-(((S)-10-hydroxy-7-((R)-2-phenylpiperazine-1-carbonyl)-7-aza-spiro[4.5]decan-10-yl)methyl)pyrimidin-4(3H)-one], less than 500 nM.
On to `Cc1cccc(-c2cc(=O)n(C[C@]3(O)CCN(C(=O)N4CCNC[C@H]4c4cc(F)ccc4F)CC34CCCC4)cn2)c1` [Example 386, 3-(((S)-7-((R)-2-(2,5-Difluorophenyl)piper-azine-1-carbonyl)-10-hydroxy-7-azaspiro[4.5]decan-10-yl)methyl)-6-(m-tolyl)pyrimidin-4(3H)-one], for which the IC50 was less than 500 nM.
On to `O=C(N1CC[C@@](O)(Cn2cnc(-c3ccccc3F)cc2=O)C2(CCCC2)C1)N1CCNC[C@H]1c1cc(F)ccc1F` [Example 387, 3-(((S)-7-((R)-2-(2,5-Difluorophenyl)piper-azine-1-carbonyl)-10-hydroxy-7-azaspiro[4.5]decan-10-yl)methyl)-6-(2-fluorophenyl)pyrimi-din-4(3H)-one], for which the IC50 was less than 500 nM.
Take `COc1ccccc1-c1cc(=O)n(C[C@]2(O)CCN(C(=O)N3CCNC[C@H]3c3cc(F)ccc3F)CC23CCCC3)cn1` [Example 388, 3-(((S)-7-((R)-2-(2,5-Difluoro-phenyl)piperazine-1-carbonyl)-10-hydroxy-7-azaspiro [4.5]decan-10-yl)methyl)-6-(2-meth-oxyphenyl)pyrimi-din-4(3H)-one]: the IC50 was less than 500 nM.
